In ChEMBL document CHEMBL4190322, “Structure-based development of novel triazoles and related thiazolotriazoles as anticancer agents and Cdc25A/B phosphatase inhibitors. Synthesis, in vitro biological evaluation, molecular docking and in silico ADME-T studies” (Eur J Med Chem, 2017):
The source made the active and inactive calls. No cut-off for these calls is given here.

Experiments:
Assay type in all cases: functional
HT-29 = assay: Growth inhibition of human HT-29 cells at 10 uM after 48 hrs by SRB assay relative to control
OVCAR-8 = assay: Growth inhibition of human OVCAR8 cells at 10 uM after 48 hrs by SRB assay relative to control
CCRF-CEM = assay: Growth inhibition of human CCRF-CEM cells at 10 uM after 48 hrs by SRB assay relative to control; conditions: read-out: GI
K562 = assay: Growth inhibition of human K562 cells at 10 uM after 48 hrs by SRB assay relative to control; conditions: K562, 48 h, read-out: GI
SR = assay: Growth inhibition of human SR cells at 10 uM after 48 hrs by SRB assay relative to control; conditions: read-out: GI
MOLT-4 = assay: Growth inhibition of human MOLT4 cells at 10 uM after 48 hrs by SRB assay relative to control; conditions: MOLT-4, 48 h, read-out: GI
RPMI-8226 = assay: Growth inhibition of human RPMI8226 cells at 10 uM after 48 hrs by SRB assay relative to control
HL-60 = assay: Growth inhibition of human HL60 cells at 10 uM after 48 hrs by SRB assay relative to control
A549 = assay: Growth inhibition of human A549 cells at 10 uM after 48 hrs by SRB assay relative to control; conditions: A549, 48 h, read-out: GI
HOP-62 = assay: Growth inhibition of human HOP62 cells at 10 uM after 48 hrs by SRB assay relative to control; conditions: HOP-62, 48 h, read-out: GI
HOP-92 = assay: Growth inhibition of human HOP92 cells at 10 uM after 48 hrs by SRB assay relative to control; conditions: HOP-92, 48 h, read-out: GI
NCI-H226 = assay: Growth inhibition of human NCI-H226 cells at 10 uM after 48 hrs by SRB assay relative to control; conditions: NCI-H226, 48 h, read-out: GI
NCI-H23 = assay: Growth inhibition of human NCI-H23 cells at 10 uM after 48 hrs by SRB assay relative to control; conditions: NCI-H23, 48 h, read-out: GI
NCI-H322M = assay: Growth inhibition of human NCI-H322M cells at 10 uM after 48 hrs by SRB assay relative to control; conditions: read-out: GI
NCI-H522 = assay: Growth inhibition of human NCI-H522 cells at 10 uM after 48 hrs by SRB assay relative to control; conditions: NCI-H522, 48 h, read-out: GI
HCT-116 = assay: Growth inhibition of human HCT116 cells at 10 uM after 48 hrs by SRB assay relative to control
KM12 = assay: Growth inhibition of human KM12 cells at 10 uM after 48 hrs by SRB assay relative to control; conditions: KM12, 48 h, read-out: GI
SF-268 = assay: Growth inhibition of human SF268 cells at 10 uM after 48 hrs by SRB assay relative to control; conditions: SF-268, 48 h, read-out: GI
SNB-19 = assay: Growth inhibition of human SNB19 cells at 10 uM after 48 hrs by SRB assay relative to control
SNB-75 = assay: Growth inhibition of human SNB75 cells at 10 uM after 48 hrs by SRB assay relative to control; conditions: SNB-75, 48 h, read-out: GI
U-251 = assay: Growth inhibition of human U251 cells at 10 uM after 48 hrs by SRB assay relative to control; conditions: U-251, 48 h, read-out: GI
LOX IMVI = assay: Growth inhibition of human LOXIMVI cells at 10 uM after 48 hrs by SRB assay relative to control; conditions: read-out: GI
SK-MEL-2 = assay: Growth inhibition of human SK-MEL-2 cells at 10 uM after 48 hrs by SRB assay relative to control; conditions: SK-MEL-2, 48 h, read-out: GI
SK-MEL-5 = assay: Growth inhibition of human SK-MEL-5 cells at 10 uM after 48 hrs by SRB assay relative to control; conditions: SK-MEL-5, 48 h, read-out: GI
UACC-257 = assay: Growth inhibition of human UACC257 cells at 10 uM after 48 hrs by SRB assay relative to control
UACC-62 = assay: Growth inhibition of human UACC62 cells at 10 uM after 48 hrs by SRB assay relative to control; conditions: UACC-62, 48 h, read-out: GI
OVCAR-3 = assay: Growth inhibition of human OVCAR3 cells at 10 uM after 48 hrs by SRB assay relative to control; conditions: OVCAR-3, 48 h, read-out: GI
OVCAR-4 = assay: Growth inhibition of human OVCAR4 cells at 10 uM after 48 hrs by SRB assay relative to control; conditions: OVCAR-4, 48 h, read-out: GI
NCI/ADR-RES = assay: Growth inhibition of human NCI/ADR-RES cells at 10 uM after 48 hrs by SRB assay relative to control; conditions: read-out: GI
SK-OV-3 = assay: Growth inhibition of human SKOV3 cells at 10 uM after 48 hrs by SRB assay relative to control; conditions: SK-OV-3, 48 h, read-out: GI
786-0 = assay: Growth inhibition of human 786-0 cells at 10 uM after 48 hrs by SRB assay relative to control
A498 = assay: Growth inhibition of human A498 cells at 10 uM after 48 hrs by SRB assay relative to control; conditions: A498, 48 h, read-out: GI
CAKI-1 = assay: Growth inhibition of human Caki1 cells at 10 uM after 48 hrs by SRB assay relative to control; conditions: CAKI-1, 48 h, read-out: GI
RXF 393 = assay: Growth inhibition of human RXF393 cells at 10 uM after 48 hrs by SRB assay relative to control
UO-31 = assay: Growth inhibition of human UO31 cells at 10 uM after 48 hrs by SRB assay relative to control; conditions: UO-31, 48 h, read-out: GI
PC-3 = assay: Growth inhibition of human PC3 cells at 10 uM after 48 hrs by SRB assay relative to control; conditions: PC-3, 48 h, read-out: GI
MCF7 = assay: Growth inhibition of human MCF7 cells at 10 uM after 48 hrs by SRB assay relative to control; conditions: MCF7, 48 h, read-out: GI
Hs-578T = assay: Growth inhibition of human Hs 578T cells at 10 uM after 48 hrs by SRB assay relative to control
MDA-MB-468 = assay: Growth inhibition of human MDA-MB-468 cells at 10 uM after 48 hrs by SRB assay relative to control
Malme-3M = assay: Growth inhibition of human MALME-3M cells at 10 uM after 48 hrs by SRB assay relative to control

Structure (SMILES) | growth inhibition (GI) (HT-29) | inhibition of growth at 10 µM (CCRF-CEM) [%] | inhibition of growth at 10 µM (K562) [%] | inhibition of growth at 10 µM (SR) [%] | inhibition of growth at 10 µM (MOLT-4) [%] | growth inhibition (GI) (HL-60) | inhibition of growth at 10 µM (A549) [%] | inhibition of growth at 10 µM (HOP-62) [%] | inhibition of growth at 10 µM (HOP-92) [%] | inhibition of growth at 10 µM (NCI-H226) [%] | inhibition of growth at 10 µM (NCI-H23) [%] | inhibition of growth at 10 µM (NCI-H322M) [%] | inhibition of growth at 10 µM (NCI-H522) [%] | inhibition of growth at 10 µM (KM12) [%] | inhibition of growth at 10 µM (SF-268) [%] | inhibition of growth at 10 µM (SNB-75) [%] | inhibition of growth at 10 µM (U-251) [%] | inhibition of growth at 10 µM (LOX IMVI) [%] | inhibition of growth at 10 µM (SK-MEL-2) [%] | inhibition of growth at 10 µM (SK-MEL-5) [%] | further results
COc1ccc(Cc2nnc(SCC(=O)c3ccc(C)cc3)n2-c2ccccc2)cc1 | inactive | 5.01 | 7.62 | 7.61 | 9.02 | inactive | 17.5 | 6.7 | 14.3 | 2.21 | 7 | 8.17 | 19 | 4.22 | 3.62 | 8.11 | 4.09 | 2 | 23 | 3.36 | inhibition of growth at 10 µM (OVCAR-8; OVCAR-8, 48 h, read-out: GI): 1.78%; growth inhibition (GI) (RPMI-8226): inactive; growth inhibition (GI) (HCT-116): inactive; inhibition of growth at 10 µM (SNB-19; SNB-19, 48 h, read-out: GI): 4.85%; inhibition of growth at 10 µM (UACC-257; UACC-257, 48 h, read-out: GI): 7.67%; inhibition of growth at 10 µM (UACC-62): 14%; inhibition of growth at 10 µM (OVCAR-3): 4.05%; inhibition of growth at 10 µM (OVCAR-4): 1.87%; inhibition of growth at 10 µM (NCI/ADR-RES): 16.6%; inhibition of growth at 10 µM (SK-OV-3): 13.9%; growth inhibition (GI) (786-0): inactive; inhibition of growth at 10 µM (A498): 26%; inhibition of growth at 10 µM (CAKI-1): 7.83%; growth inhibition (GI) (RXF 393): inactive; inhibition of growth at 10 µM (UO-31): 30.2%; inhibition of growth at 10 µM (PC-3): 20.7%; inhibition of growth at 10 µM (MCF7): 14.6%; growth inhibition (GI) (Hs-578T): inactive; inhibition of growth at 10 µM (MDA-MB-468; MDA-MB-468, 48 h, read-out: GI): 19.3%; inhibition of growth at 10 µM (Malme-3M; read-out: GI): 5.45%
COc1ccc(Cc2nnc3sc(SCC(=O)c4ccc(Cl)cc4)nn23)cc1 | inactive | 12.2 | 10 | 13.2 | 7.83 | inactive | 1.3 | 7.5 | 32 | 2 | 10.7 | 6.27 | 17.7 | 5.4 | 5 | 21.8 | 8.78 | 9 | 10 | 2.05 | growth inhibition (GI) (OVCAR-8): inactive; inhibition of growth at 10 µM (RPMI-8226; RPMI-8226, 48 h, read-out: GI): 8.67%; inhibition of growth at 10 µM (HCT-116; HCT-116, 48 h, read-out: GI): 4%; growth inhibition (GI) (SNB-19): inactive; growth inhibition (GI) (UACC-257): inactive; inhibition of growth at 10 µM (UACC-62): 1.72%; inhibition of growth at 10 µM (OVCAR-3): 3.88%; inhibition of growth at 10 µM (OVCAR-4): 2.26%; inhibition of growth at 10 µM (NCI/ADR-RES): 5.12%; inhibition of growth at 10 µM (SK-OV-3): 11.2%; growth inhibition (GI) (786-0): inactive; inhibition of growth at 10 µM (A498): 35.4%; inhibition of growth at 10 µM (CAKI-1): 17.5%; growth inhibition (GI) (RXF 393): inactive; inhibition of growth at 10 µM (UO-31): 22.3%; inhibition of growth at 10 µM (PC-3): 25.8%; inhibition of growth at 10 µM (MCF7): 6.24%; inhibition of growth at 10 µM (Hs-578T; read-out: GI): 2.07%; growth inhibition (GI) (MDA-MB-468): inactive; growth inhibition (GI) (Malme-3M): inactive
